Target: PI3Kalpha (Homo sapiens (Human), UniProt P42336)
Settings: read-out: IC50 PI3K
Protocol: Plot the concentration of each compound versus the emission ratio. […] Determination of IC50 values can be obtained by curve fitting (sigmoidal dose response, variable slope) using Prism software from GraphPad).
Method Type: Filter-Binding-Assay
Compounds are serially diluted in assay buffer+6% DMSO and 10 μl of each dilution is added per well of a 96-well plate (compounds are tested in duplicates) and mixed with 30 μl of the lipid vesicles containing PDGFR-Peptide (0.5 μM final) and PI3K alpha (25 ng/well final). The mixture is then incubated for 20 minutes at room temperature. Subsequently, 20 μl of assay buffer containing 3 μM cold ATP and 0.5 μCi/20 μl 33P-ATP are added. The plates are then incubated at room temperature for 120 minutes (shaking with 300 rpm). The reaction mix is transferred onto filter plates using “filtermate harvester” from Packard: filter plates are rinsed with PBS, then the reaction mix is filtered onto the filter plate, washed 5 times with PBS and are allowed to dry for 30-60 minutes at 50° C.
As positive control serve wells containing vehicle controls (1% DMSO in assay buffer), showing non-inhibited kinase activity (high values). Wells containing assay buffer instead of enzyme can serve as control for background activity (low values).
Calculate IC50 values using the Smiley program (based on GrapPad Prism)

Sequence of PI3Kalpha (P42336 whole entry, looked up): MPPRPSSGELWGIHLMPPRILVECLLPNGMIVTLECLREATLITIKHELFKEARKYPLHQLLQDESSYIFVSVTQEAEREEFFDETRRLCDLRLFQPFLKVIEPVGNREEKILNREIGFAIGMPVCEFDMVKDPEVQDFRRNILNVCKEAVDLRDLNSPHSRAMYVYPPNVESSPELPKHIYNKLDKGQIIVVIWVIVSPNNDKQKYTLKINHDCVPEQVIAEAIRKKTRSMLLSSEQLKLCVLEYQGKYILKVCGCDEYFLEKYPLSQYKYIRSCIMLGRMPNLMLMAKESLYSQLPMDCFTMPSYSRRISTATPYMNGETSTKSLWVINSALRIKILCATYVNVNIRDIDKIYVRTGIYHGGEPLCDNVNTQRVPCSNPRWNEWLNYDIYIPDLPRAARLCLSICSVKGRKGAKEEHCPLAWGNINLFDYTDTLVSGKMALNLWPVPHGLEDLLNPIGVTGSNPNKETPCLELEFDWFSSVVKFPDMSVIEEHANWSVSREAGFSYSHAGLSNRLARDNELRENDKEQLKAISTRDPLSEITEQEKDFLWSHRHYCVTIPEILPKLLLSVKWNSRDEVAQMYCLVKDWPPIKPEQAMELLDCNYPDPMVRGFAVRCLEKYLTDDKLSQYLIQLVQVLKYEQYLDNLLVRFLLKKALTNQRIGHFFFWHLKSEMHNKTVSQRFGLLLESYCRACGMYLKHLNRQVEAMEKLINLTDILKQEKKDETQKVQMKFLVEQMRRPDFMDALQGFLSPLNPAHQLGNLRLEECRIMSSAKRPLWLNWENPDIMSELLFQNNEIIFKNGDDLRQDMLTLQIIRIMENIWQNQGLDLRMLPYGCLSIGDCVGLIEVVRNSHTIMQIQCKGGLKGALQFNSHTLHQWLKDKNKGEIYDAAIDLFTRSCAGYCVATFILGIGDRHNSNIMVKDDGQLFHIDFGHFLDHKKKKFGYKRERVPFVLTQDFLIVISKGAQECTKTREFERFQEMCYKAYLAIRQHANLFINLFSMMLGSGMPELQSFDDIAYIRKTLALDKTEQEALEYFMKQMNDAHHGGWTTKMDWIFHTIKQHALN

SMILES	IC50 [nM]
CCc1cc(-c2ncnc(CC)c2C#Cc2ccc(N)nc2)ccn1 [Example C-3]	40
CCc1ncnc(-c2cc(C)nc(C)c2)c1C#Cc1ccc(N)nc1 [Example C-4]	29
CNC(=O)c1ccc(-c2ncnc(C)c2C#Cc2ccc(N)nc2)cc1Cl [Example C-5]	50
Cc1ncnc(-c2ccc(C(=O)N(C)C)cc2)c1C#Cc1ccc(N)nc1 [Example C-6]	86
Cc1ncnc(-c2ccccc2)c1C#Cc1ccc(N)nc1 [Example C-7]	39
Cc1ncnc(-c2ccc(F)c(C(=O)N(C)C)c2)c1C#Cc1ccc(N)nc1 [Example C-9]	254
Cc1ncnc(-c2cccc(C(=O)N(C)C)c2)c1C#Cc1ccc(N)nc1 [Example C-10]	401
Cc1ncnc(-c2ccc(C(=O)N(C)C)c(F)c2)c1C#Cc1ccc(N)nc1 [Example C-11]	47
CCc1ncnc(-c2ccc(C(=O)NC)c(Cl)c2)c1C#Cc1ccc(N)nc1 [Example C-12]	71
CCc1ncnc(-c2ccccc2)c1C#Cc1ccc(N)nc1 [Example C-13]	99
CCc1ncnc(-c2ccc(S(C)(=O)=O)cc2)c1C#Cc1ccc(N)nc1 [Example C-14]	66
CCc1ncnc(-c2ccc(C(=O)N(C)C)c(F)c2)c1C#Cc1ccc(N)nc1 [Example C-15A]	57
CCc1ncnc(-c2ccc(F)c(C(=O)N(C)C)c2)c1C#Cc1ccc(N)nc1 [Example C-15]	189
CCc1ncnc(-c2ccc(C(=O)NC)c(Cl)c2)c1C#Cc1ccc(C)nc1 [Example C-16]	236
CCc1ncnc(-c2ccc(S(C)(=O)=O)cc2)c1C#Cc1ccc(C)nc1 [Example C-17]	99
CCc1ncnc(-c2ccc(C(=O)N(C)C)cc2)c1C#Cc1ccc(C)nc1 [Example C-18]	137
Cc1cc(-c2ncnc(C)c2C#Cc2ccc(N)nc2)ccn1 [Example C-20]	58
Cc1ncnc(-c2ccc(C(F)(F)F)nc2)c1C#Cc1ccc(N)nc1 [Example C-21]	99

SMILES	IC50 [nM]
Cc1ncnc(-c2cnc3ccccc3c2)c1C#Cc1ccc(N)nc1 [Example C-22]	30
COc1ccc(-c2ncnc(C)c2C#Cc2ccc(N)nc2)cn1 [Example C-23]	78
Cc1ccc(-c2ncnc(C)c2C#Cc2ccc(N)nc2)cn1 [Example C-24]	59
Cc1ncnc(-c2ccc(N3CCCCC3)nc2)c1C#Cc1ccc(N)nc1 [Example C-25]	64
Cc1ncnc(-c2ccc(C3CC3)nc2)c1C#Cc1ccc(N)nc1 [Example C-26]	43
CCc1ncnc(-c2ccnc(C)c2)c1C#Cc1ccc(N)nc1 [Example C-27]	57
CCc1ncnc(-c2ccc(C(F)(F)F)nc2)c1C#Cc1ccc(N)nc1 [Example C-28]	58
CCc1ncnc(-c2cnc3ccccc3c2)c1C#Cc1ccc(N)nc1 [Example C-29]	24
CCc1ncnc(-c2ccc(OC)nc2)c1C#Cc1ccc(N)nc1 [Example C-30]	40
CCc1ncnc(-c2ccc(C)nc2)c1C#Cc1ccc(N)nc1 [Example C-31]	30
CCc1ncnc(-c2ccc(N3CCOCC3)nc2)c1C#Cc1ccc(N)nc1 [Example C-32]	32
CCc1ncnc(-c2ccnc(OC)c2)c1C#Cc1ccc(N)nc1 [Example C-33]	61
CCc1ncnc(-c2ccc(N(C)C)nc2)c1C#Cc1ccc(N)nc1 [Example C-34]	37
CCN(CC)C(=O)c1cccc(-c2ncnc(C)c2C#Cc2ccc(N)nc2)c1 [Example C-36]	308
Cc1ncnc(-c2cccc(C(=O)N3CCOCC3)c2)c1C#Cc1ccc(N)nc1 [Example C-37]	224
Cc1ncnc(-c2cc(Cl)cc(C(=O)N(C)C)c2)c1C#Cc1ccc(N)nc1 [Example C-38]	68
Cc1ncnc(-c2ccc(F)c(C(=O)N3CCOCC3)c2)c1C#Cc1ccc(N)nc1 [Example C-39]	380
Cc1ncnc(-c2ccc(Cl)c(C(=O)N3CCOCC3)c2)c1C#Cc1ccc(N)nc1 [Example C-40]	459

Source: US8633183B2 (priority 2010, dated 2014)
